The values below come from ChEMBL document CHEMBL2163345, “Part II. Development of novel colchicine-derived immunosuppressants with improved pharmacokinetic properties” (Bioorg Med Chem Lett, 2012).

Values after ≈ are worked out from the molar mass of the structure shown. Active and inactive are the calls of the source. The calls are words filed in the database; no cut-off is given here.

The nature of series [1]: Immunosuppressant activity in chicken B-lymphocyte activated splenic lymphocytes assessed as inhibition of LPS-induced cell proliferation by [3H]thymidine incorporation assay. Format: functional. The following applies: Gallus gallus.
The test system of series [2] is Splenocyte. The series is described as follows: Immunosuppressant activity in mouse splenocytes by mixed-leukocyte reaction assay. Format: functional, cell-based.
Series [3] is described as follows: Immunosuppressant activity in chicken T-lymphocyte activated splenic lymphocytes assessed as inhibition of ConA-induced cell proliferation by [3H]thymidine incorporation assay. Format: functional. The note with it: Gallus gallus.
The nature of series [4]: Solubility of the compound in presence of 20% serum. Format: physicochemical.
Series [5] in a line: Antiproliferative activity against T cells. Format: cell-based. The note with it: t-cell.
Series [6] in a line: Mean residence time (infinity) in BALB/c mouse at 1 mg/kg, po. It is filed as ADME, organism-based. The arrangement: dose 1 mg/kg, route oral. The note with it: in vivo.
A short description of series [7]: Mean residence time (infinity) in BALB/c mouse at 0.5 mg/kg, iv. It is filed as ADME, organism-based. Details: dose 0.5 mg/kg, route intravenous. The note with it: in vivo.
The nature of series [8]: Half life in BALB/c mouse at 1 mg/kg, po. It is filed as ADME, organism-based. The arrangement: dose 1 mg/kg, route oral. The note with it: in vivo.
For series [9], the system named is B-cell. In words: Antiproliferative activity against LPS-induced B cells. It is filed as functional, cell-based.
The nature of series [10]: Clearance in BALB/c mouse at 0.5 mg/kg, iv. It is filed as ADME, organism-based. The arrangement: dose 0.5 mg/kg, route intravenous. The following applies: in vivo.
Series [11] can be described thus: AUC (0 to infinity) in BALB/c mouse at 1 mg/kg, po. It is filed as ADME, organism-based. The following applies: plasma. Details: time infinity, dose 1 mg/kg, route oral.
Series [12] can be described thus: Antiproliferative activity against BMDM cells. Format: cell-based.
Series [13] concerns Dendritic cell. In words: Antiproliferative activity against LPS-induced bone marrow-derived dendritic cells. Format: functional, cell-based.
Series [14] in a line: Cmax in BALB/c mouse at 1 mg/kg, po. The note with it: in vivo. The arrangement: dose 1 mg/kg, route oral. It is filed as ADME, organism-based.
Series [15] in a line: Antiproliferative activity against B cells. The following applies: b-cell. It is filed as cell-based.
A short description of series [16]: AUC (0 to infinity) in BALB/c mouse at 0.5 mg/kg, iv. It is filed as ADME, organism-based. Details: time infinity, dose 0.5 mg/kg, route intravenous. The following applies: plasma.
Series [17] is filed under the species Mus musculus. In words: Immunosuppressant activity in C57BL/6 mouse assessed as inhibition of DNCB-induced cytokine release by local lymph node assay. Format: functional, organism-based.
A short description of series [18]: Half life in BALB/c mouse at 0.5 mg/kg, iv. It is filed as ADME, organism-based. The following applies: in vivo. The arrangement: dose 0.5 mg/kg, route intravenous.
The test system of series [19] is BMDM. In words: Antiproliferative activity against LPS-induced BMDM cells. Format: functional, cell-based.
Series [20] in a line: Antiproliferative activity against bone marrow-derived dendritic cells. The note with it: dendritic cell. Format: cell-based.
The species named for series [21] is Mus musculus. The series is described as follows: Immunosuppressant activity in C57BL/6 mouse assessed as inhibition of zymosan A-induced arthritis. It is filed as functional, organism-based.
Series [22] deals with T-cell. In words: Antiproliferative activity against ConA-induced T cells. It is filed as functional, cell-based.
The test system of series [23] is Mus musculus. In words: Immunosuppressant activity in C57BL/6 mouse assessed as inhibition of carrageenan-induced paw edema. It is filed as functional, organism-based. A general note: In the carrageenan paw model, swelling and tenderness develop within hours.
Series [24] can be described thus: Volume of distribution at steady state in BALB/c mouse at 0.5 mg/kg, iv. Format: ADME, organism-based. Details: dose 0.5 mg/kg, route intravenous. The note with it: in vivo, read-out: Vdss.
A short description of series [25]: Oral bioavailability in BALB/c mouse at 1 mg/kg. Format: ADME, organism-based. The note with it: in vivo.
Series [26] can be described thus: Tmax in BALB/c mouse at 1 mg/kg, po. It is filed as ADME, organism-based. Details: dose 1 mg/kg, route oral. The note with it: in vivo.
[27] abbreviates: Mus musculus, Splenocyte, read-out: IC50.

With `C/C=C/C=C/C(=O)N[C@H]1CCc2cc(OC)c(OC)c(OC)c2-c2ccc(SC)c(=O)cc21`, the concentration for half-maximal inhibition (IC50) (in general, the point on the concentration scale where inhibition reaches its midpoint) in series [1] was 0.0057 µg/mL (≈ 0.0122 µM); in series [2] (setting [27]) it was 4 nM; in series [3], 0.0407 µg/mL (≈ 0.087 µM).

On to `COc1cc2c(c(OC)c1OC)-c1ccc(SC)c(=O)cc1[C@@H](NC(=O)c1cccc(CO[N+](=O)[O-])c1)CC2`, for which the solubility (usually the concentration that dissolves in the medium under given conditions) in series [4] amounted to 10 µM.

Take `C=C(CC)C(=O)N[C@H]1CCc2cc(OC)c(OC)c(OC)c2-c2ccc(SC)c(=O)cc21`: the IC50 in series [2] (setting [27]) came to 86 nM.

With `COc1cc2c(c(OC)c1OC)-c1ccc(SC)c(=O)cc1[C@H](NC(=O)C1CC1C)CC2` (stereo not given in full), the half-inhibitory concentration (IC50) result in series [2] (splenocyte) is “Not Active”.

Turning to `C=CCC(=O)N[C@H]1CCc2cc(OC)c(OC)c(OC)c2-c2ccc(SC)c(=O)cc21`, the IC50 in [2] (setting [27]) came to 702 nM.

For the molecule `C/C=C/C(=O)N[C@H]1CCc2cc(OC)c(OC)c(OC)c2-c2ccc(SC)c(=O)cc21`, in [2] (setting [27]), the IC50 turned out to be 67 nM.

In the case of `COc1cc2c(c(OC)c1OC)-c1ccc(OC)c(=O)cc1[C@@H](NC(=O)C1CC1C)CC2` (stereo not given in full), the 50% inhibitory concentration (IC50) in series [2] (setting [27]) was 1250 nM.

Take `COc1cc2c(c(OC)c1OC)-c1ccc(SC)c(=O)cc1[C@@H](NC(=O)C1C(C)N1C)CC2` (stereo not given in full): the IC50 in [2] (setting [27]) was found to be 38 nM.

On to `C=CC(=C)C(=O)N[C@H]1CCc2cc(OC)c(OC)c(OC)c2-c2ccc(SC)c(=O)cc21`, for which the half-maximal inhibitory concentration (IC50) in series [2] (setting [27]) is 112 nM.

Turning to `C/C=C/CC(=O)N[C@H]1CCc2cc(OC)c(OC)c(OC)c2-c2ccc(SC)c(=O)cc21`, the IC50 in series [2] (setting [27]) turned out to be 1670 nM.

Consider `COc1cc2c(c(OC)c1OC)-c1cccc(=O)cc1[C@@H](NC(=O)C1CC1C)CC2` (stereo not given in full), for which the IC50 result in series [2] (splenocyte) is “Not Active”.

Consider `COc1cc2c(c(OC)c1OC)-c1ccc([S+](C)[O-])c(=O)cc1[C@@H](NC(=O)C1CC1C)CC2` (stereo not given in full), for which the half-maximal inhibitory concentration (IC50) result in [2] (splenocyte) is given as “Not Active”.

With `COc1cc2c(c(OC)c1OC)-c1ccc(SC)c(=O)cc1[C@@H](NC(=O)C1OC1C)CC2` (mixture of isomers), the 50% inhibitory concentration (IC50) in series [2] (setting [27]) was 119 nM.

With `COc1cc2c(c(OC)c1OC)-c1ccc(OC)c(=O)cc1[C@@H](NC(C)=O)CC2` [COLCHICINE], the solubility in series [4] was 300 µM.

As to `COc1cc2c(c(OC)c1OC)-c1ccc(SC)c(=O)cc1[C@@H](NC(=O)C1CC1C)CC2` (stereo not given in full), the half-inhibitory concentration (IC50) was 0.0059 µg/mL (≈ 0.013 µM) in series [1], 5 nM in series [2] (setting [27]) and 0.031 µg/mL (≈ 0.068 µM) in series [3]. Moreover, the Activity entry in [5], in [12], in series [15] and in [20] was “Non-toxic” throughout. Besides, the mean residence time (MRT inf) (as a rule, the average time that molecules of a dose stay in the body) in series [6] was found to be 2.2 h; in series [7], 0.6 h. Moreover, the half-life in [8] and in [18] was 2.9 h in each case. In addition, the outcome in series [9], in series [13], in series [19] and in series [22] was Active. In addition, the clearance (usually a measure of how efficiently the substance is removed, as volume per time) in series [10] was 41.7 mL/min/kg. Moreover, the AUC(0-inf) (as a rule, the area under the concentration-time curve extrapolated to infinity) in series [11] came to 269 ng·h/mL; in series [16], 200 ng·h/mL. The concentration in series [14] peaked (Cmax) at 254 ng/mL. Further, in series [17], the inhibition result is “Active”. The inhibition result in [21] and in series [23] was “Dose-dependent effect” throughout. In addition, in series [24], the Vd was 1.6 L/kg. In addition, the bioavailability (commonly the share of a dose that reaches the circulation, judged against a reference dose that is usually intravenous) in series [25] turned out to be 67.3%. Further, in series [26], the Tmax (as a rule, the time at which the peak concentration occurs) amounted to 0.25 h.

Turning to `COc1cc2c(c(OC)c1OC)-c1ccc(S(C)(=O)=O)c(=O)cc1[C@@H](NC(=O)C1CC1C)CC2` (stereo not given in full), the 50% inhibitory concentration (IC50) entry in [2] (splenocyte) was “Not Active”.

With `COc1cc2c(c(OC)c1OC)-c1ccc(SC)c(=O)cc1[C@@H](NC(=O)CCCO[N+](=O)[O-])CC2`, in [4], the solubility worked out at 100 µM.

For the molecule `COc1cc2c(c(OC)c1OC)-c1ccc(SC)c(=O)cc1[C@@H](NC(=O)C1NC1C)CC2` (stereo not given in full), in [2] (setting [27]), the IC50 came to 46 nM.

Consider `C=C(C)/C=C(\CC)C(=O)N[C@H]1CCc2cc(OC)c(OC)c(OC)c2-c2ccc(SC)c(=O)cc21`, for which the half-inhibitory concentration (IC50) in series [2] (setting [27]) is 31 nM.
